# Key:
# murine taste tissue [1] = experiment: Rapid time course quench-flow IP3 generation in murine taste tissue; format: biochemical, mouse; conditions: addition to murine taste tissue homogenate supernatant
# Experimental: To confirm that gustducin γ subunit does indeed function in taste transduction rapid time course quench-flow experiments were carried out essentially as described in Tarelius et al., pp. 193–202 in Spielman et al., Eds., Experimental Cell Biology of Taste and Olfaction. Current Techniques & Protocols, CRC Press, Boca Raton (1995). […] Furthermore, it has been shown that the denatonium response depends upon a novel phospholipase C (PLC) β2 isotype specifically expressed in taste receptor cells.
# Tongues were excised from 6 to 8 week old female SWR mice, and lingual papillae removed. One vallate and two foliate papillae and nongustatory control tissue from the dorsal eminence of the peeled epithelium were placed in ice-cold MOPS buffer pH 6.9 (50 mM MOPS, 100 mM NaCl, 0.081 mM CaCl2 and 2.5 mM MgCl2), containing 10 mM EGTA, 1 mM DTT, and a protease inhibitor cocktail [1 mg/ml, specific for serine, cysteine, aspartic and metallo-proteinases (Sigma)]. Tissue collected from twenty-five tongues was homogenized in MOPS-EGTA buffer pH 6.9, without the enzyme inhibitors, and centrifuged (1000×g for 20 min. at 4° C.). The recovered supernatant (at a protein concentration of about 30 μg/ml), was used for rapid kinetic experiments. […]
# murine taste tissue [2] = conditions: shown previously; cited from earlier work
# gustducin α subunit = experiment: Trypsin sensitivity assay of gustducin α subunit activation by denatonium-stimulated taste membranes; format: biochemical
# Experimental: To confirm this idea, yet another trypsin sensitivity assay was utilized.
# Five μl aliquots of in vitro translated gustducin α subunit were incubated with 5 μg of purified taste membranes or control non-taste membranes, 0.1 mM GDP, 1 μM GTPγS, with or without 5 mM of the bitter compound denatonium, plus a 10 μl aliquot of cotranslated β1/gustducin γ subunit or β2/γ2 dimer, or 10 μl rabbit reticulocyte lysate (the minus βγ control) for 1 hour at 30° C., followed by digestion with trypsin as described in Ming et al., Proc. Natl. Acad. Sci. USA, 95: 8933–8938 (1998).
# [3] = taste receptor-containing membranes stimulated by 5 mM denatonium
Compound,generation of IP3 relative to basal level (murine taste tissue [1]),generation of IP3 in control non-taste tissue (murine taste tissue [2]),enhancement of activation of gustducin α subunit (gustducin α subunit; control non-taste membranes),enhancement of activation of gustducin α subunit (gustducin α subunit; [3])
CC[N+](CC)(CC(=O)Nc1c(C)cccc1C)Cc1ccccc1 [denatonium benzoate],slightly more than twice the basal level,not in control non-taste tissue,–,–
CC(=O)OC[C@H]1O[C@@](COC(C)=O)(O[C@H]2O[C@H](COC(C)=O)[C@@H](OC(C)=O)[C@H](OC(C)=O)[C@H]2OC(C)=O)[C@@H](OC(C)=O)[C@@H]1OC(C)=O [sucrose octa-acetate],–,not in control non-taste tissue,–,–
β1/gustducin γ subunit: cotranslated β1/gustducin γ subunit dimer,–,–,did not enhance activation,enhanced activation
β2/γ2: cotranslated β2/γ2 dimer [reference compound],–,–,–,did not enhance activation
